The source of these data is patent publication US12492215B2, “Pyrrolotriazine compounds acting as MNK inhibitor” (JUMBO DRUG BANK CO., LTD., priority 2019, dated 2025).

One data set deals with MNK2 (h) protein kinase (Homo sapiens (Human), UniProt Q9HBH9). The data set is described as follows: Inhibitory activity against MNK2 protein kinase (KinaseProfiler, 33P-ATP filter-binding). The class given is biochemical. The conditions noted are these: myelin basic protein substrate, 40 min room temperature. How it is done:
1. In Vitro Evaluation of Inhibitory Activity of Compounds Disclosed Herein Against MNK2 Protein Kinase
Purpose of experiment: to test the inhibitory activity of the compounds against MNK2 protein kinase
Experimental materials: assay buffer: 8 mM 3-(N-morpholino)propanesulfonic acid, 0.2 mM disodium ethylenediaminetetraacetate, 0.01% polyoxyethylene lauryl ether, 5% glycerol, 0.1% β-mercaptoethanol and 1 mg of bovine serum albumin
Experimental operation: Mnk2 protein kinase inhibitory activity assays were performed using the KinaseProfiler™ service from Eurofins Pharma Discovery Services UK Limited. Serially diluted DMSO solutions containing the compounds to be tested (3-fold serial dilution, starting from 10 μM), MNK2 (h) protein kinase and 0.33 mg/mL myelin basic protein were added to a freshly prepared buffer (pH 7.0), and then stirred homogeneously. The reaction was initiated by adding a mixture of ^33P-ATP (intensity of radioactivity: 10 μCi/μL) and 10 mM magnesium acetate. After the resulting mixture was reacted at room temperature for 40 min, the reaction was terminated by adding phosphoric acid to dilute to a concentration of 0.5%. 10 μL of the reaction solution was filtered using a P30 filtermat, and then the filtermat was washed four times with 0.425% phosphoric acid for 4 min each, followed by washing once with methanol. After drying, the intensity of radioactivity was determined using the Filter-Binding method.
The protein kinase inhibitory activity of the compounds was expressed as a percentage of the residual protein kinase activity relative to the blank substrate (DMSO alone). The Prism4 software package (GraphPad) was used to calculate IC50 values and fit curves.

The subject of data set [1] is eIF4E phosphorylation of HCT116 cell strain. The data set is described as follows: Inhibition of eIF4E phosphorylation in HCT116 cell strain (AlphaLISA p-eIF4E Ser209). The conditions noted are these: Homo sapiens, HCT-116; HCT116 cells, 3 h incubation. Type of data set: cell-based. The source says:
3. In Vitro Evaluation of Inhibitory Activity of Compounds Disclosed Herein Against eIF4E Phosphorylation Purpose of experiment: to test the inhibition (IC50) of the compounds against eIF4E phosphorylation of HCT116 cell strain. Experimental materials: HCT116 cells (ATCC), RPM11640 medium (Life technology), fetal bovine serum (Hyclone), double antibodies (penicillin, streptomycin) (Millipore), phosphate buffer (Corning), 384-well cell plate (PerkinElmer), and AlphaLISA® SureFire® Ultra™ p-eIF4E (Ser209) Assay Kit (PerkinElmer). Experimental operation: HCT116 cells were digested to make a cell suspension, which was then plated in a 96-well plate. The cell plate was then placed in an incubator for overnight incubation. Compounds were diluted to corresponding concentrations and added to the cell plate, and the resulting mixture was incubated for 3 h. The cells were subsequently lysed with a lysis buffer, and the lysate was transferred to a 384-well plate. A mixed receptor was freshly prepared according to the kit instructions and added to the 384-well plate, and the mixture was incubated at room temperature for 1 h. Then a mixed donor was freshly prepared according to the kit instructions and added to the 384-well plate, and the resulting mixture was incubated at room temperature for 1 h. The signals were read on EnVision using the standard AlphaLISA program, curves were fitted using Graphpad prism, and the IC50 values were calculated.

Data set [2] is described as follows: Pharmacokinetic evaluation in mice. Conditions: male, CD-1, mouse, plasma; for AUC(0-t) / half-life: PO 2 mg/kg; for AUC(0-t): read-out: Area under the plasma drug concentration-time curve AUC0-last PO; for half-life: read-out: Half-life T1/2 (PO) (converted); for Cmax: intragastric 2 mg/kg, intravenous 0.5 mg/kg (route of Cmax not given), read-out: Peak concentration Cmax. Type of data set: in vivo, CD-1 mice. How it is done: 4. Pharmacokinetic Evaluation of Compounds Disclosed Herein
Purpose of experiment: to test pharmacokinetic parameters of the compounds in CD-1 mice
Experimental materials: CD-1 mice (Male, 7-9 weeks age, Shanghai Sippe-Bk Lab Animal Co., Ltd.)
Experimental operation: pharmacokinetic characteristics of the compounds after intravenous injection and oral administration for the rodent were tested by a standard scheme, and the candidate compounds were each formulated into a clear solution or a uniform suspension in the experiments and intravenously administered and intragastrically administered once to a mouse. The vehicle for the intravenous injection and oral administration was […] hydroxypropyl-β-cyclodextrin aqueous solution or normal saline solution. […] Two mice were subjected to intravenous injection at a dose of 0.5 mg/kg, and plasma samples were collected at 0 h (before administration) and 0.083, 0.25, 0.5, 1, 2, 4, 8, 12 and 24 h (after administration); the other two mice were subjected to intragastric administration at a dose of 2 mg/kg, and plasma samples were collected at 0 h (before administration) and 0.25, 0.5, 1, 2, 4, 8, 12 and 24 h (after administration). Whole blood samples within 24 h were collected and each centrifuged at 3000 g for 10 min. The supernatant was separated to obtain plasma sample, and acetonitrile solution containing internal standard whose volume is […] that of the plasma sample was added to precipitate the protein. The mixture was vortexed at 800 rpm for 10 min, and then 1 μL of supernatant was taken for injection. Plasma concentrations were quantitatively analyzed by LC-MS/MS method, and pharmacokinetic parameters, such as peak concentration (Cmax), clearance (CL), half-life (T1/2), tissue distribution (Vdss), area under the plasma drug concentration-time curve (AUC0-last) and bioavailability (F), were calculated.

Structures can show the parent of a compound that is named as a salt.

Chain of MNK2 (h) protein kinase (Q9HBH9 whole entry): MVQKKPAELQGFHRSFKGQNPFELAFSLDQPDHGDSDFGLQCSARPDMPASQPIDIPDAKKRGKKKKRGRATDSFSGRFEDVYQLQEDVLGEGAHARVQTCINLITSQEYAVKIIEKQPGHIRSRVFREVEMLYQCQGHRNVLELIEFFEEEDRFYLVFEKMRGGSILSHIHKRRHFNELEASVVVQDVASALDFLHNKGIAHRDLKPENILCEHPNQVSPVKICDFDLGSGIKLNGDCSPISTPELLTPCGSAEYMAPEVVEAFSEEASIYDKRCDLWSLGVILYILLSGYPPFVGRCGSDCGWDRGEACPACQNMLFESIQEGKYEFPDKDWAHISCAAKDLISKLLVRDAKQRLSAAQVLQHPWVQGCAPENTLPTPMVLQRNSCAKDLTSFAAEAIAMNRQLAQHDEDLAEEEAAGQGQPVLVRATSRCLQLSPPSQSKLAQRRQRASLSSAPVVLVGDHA

For orientation: IC50 means the midpoint of a concentration-inhibition curve. A higher IC50 goes with weaker potency. On MNK2 (h) protein kinase, `Cc1cc(Nc2ncnn3cc(OCCN4CCCC4)c(C)c23)c(=O)n2c1C(=O)NC21CCNCC1` [Compound 2 (hydrochloride)] displayed a 50% inhibitory concentration (IC50) of 63 nM.
Same read-out and setting: the value for `Cc1cc(Nc2ncnn3cc(OCCN4CCCC4)c(C)c23)c(=O)n2c1C(=O)NC21CCN(C)CC1` [Compound 3 (hydrochloride)] was 39 nM.
`Cc1c(OCCN2CCCC2)cn2ncnc(Nc3ccc4n(c3=O)C3(CCCCC3)NC4=O)c12` [Compound 4 (hydrochloride)]: the IC50 on MNK2 (h) protein kinase is 25 nM; in data set [1], 14 nM.
The corresponding values for `Cc1c(OCCN2CCCC2)cn2ncnc(Nc3cc(F)c4n(c3=O)C3(CCCCC3)NC4=O)c12` [Compound 5 (hydrochloride)] are 26 nM and 9.5 nM.
The corresponding values for `Cc1c(OCCN2CCCC2)cn2ncnc(Nc3cc(Cl)c4n(c3=O)C3(CCCCC3)NC4=O)c12` [Compound 6 (hydrochloride)] are 21 nM and 0.66 nM.
In turn, `Cc1cc(Nc2ncnn3cc(OCCN4CCCC4)c(C)c23)c(=O)n2c1C(=O)NC21CCCC1` [Compound 7 (hydrochloride)] displayed an IC50 at MNK2 (h) protein kinase of 17 nM. Also, the IC50 in data set [1] was determined as 6.5 nM. In addition, in data set [2], the AUC(0-t) came out at 1.39 µM·h, the half-life was 192 min and the Cmax turned out to be 131 nM.
On to `Cc1cc(Nc2ncnn3cc(OCCN4CCCC4)c(C)c23)c(=O)n2c1C(=O)NC2(C)C` [Compound 8 (hydrochloride)], for which the IC50 on MNK2 (h) protein kinase was determined as 33 nM; in data set [1], 24 nM.
In the case of `Cc1cc(Nc2ncnn3cc(OCCN4CCCC4)c(C)c23)c(=O)n2c1C(=O)NC21CCC(F)(F)CC1` [Compound 9 (hydrochloride)], the IC50 on MNK2 (h) protein kinase was found to be 30 nM; in data set [1] it was 12 nM.
The matching figures for `Cc1c(OCCN2CCCC2)cn2ncnc(Nc3cc(Cl)c4n(c3=O)C3(CCCC3)NC4=O)c12` [Compound 10 (hydrochloride)]: 8 nM and 3.1 nM.
Broadly, the bioavailability is dose-corrected exposure relative to a reference, in per cent. A word on the clearance: it is the volume of plasma or blood freed of the substance per unit of time. In turn, `Cc1cc(Nc2ncnn3cc(OCCN4CCC(F)(F)C4)c(C)c23)c(=O)n2c1C(=O)NC21CCCCC1` [Compound 11] returned a concentration for half-maximal inhibition (IC50) on MNK2 (h) protein kinase of 28 nM. In addition, the concentration for half-maximal inhibition (IC50) in data set [1] was determined as 18.9 nM. Besides, the bioavailability in data set [2] (PO 2 mg/kg vs IV 0.5 mg/kg, read-out: Bioavailability F) is 14.2%. For the same compound, in data set [2], the AUC(0-t) turned out to be 0.405 µM·h, the half-life was 726 min and the Cmax was 104 nM. Further, in data set [2] (intravenous injection 0.5 mg/kg, read-out: Clearance CL), the clearance came out at 21.8 mL/min/kg. In addition, in data set [2] (intravenous injection 0.5 mg/kg, read-out: Tissue distribution Vdss), the Vd was 2.53 L/kg.
For `Cc1cc(Nc2ncnn3cc(OC[C@H](C)N4CCCC4)c(C)c23)c(=O)n2c1C(=O)NC21CCCC1` [Compound 13], the results for the IC50 (on MNK2 (h) protein kinase; in data set [1]) were 14 nM and 10.5 nM, respectively.
For the compound `Cc1cc(Nc2ncnn3cc(OCC4CCNC4)c(C)c23)c(=O)n2c1C(=O)NC21CCCCC1` (centres unmarked) [Compound 15 (hydrochloride)], on MNK2 (h) protein kinase, the IC50 was 28 nM. In other words, the double-digit nanomolar range.
Consider `Cc1cc(Nc2ncnn3cc(OCC4CCN(C)C4)c(C)c23)c(=O)n2c1C(=O)NC21CCCCC1` (centres unmarked) [Compound 16 (hydrochloride)], for which the IC50 is 27 nM on MNK2 (h) protein kinase and 2.8 nM in data set [1].
